Assay results taken from ChEMBL document CHEMBL5727650, “Heteroaryl substituted aminopyridine compounds” (2020).

Target: T1, Interleukin-1 receptor-associated kinase 4 (Homo sapiens, UniProt Q9NWZ3)
T1 sequence (Q9NWZ3 whole entry): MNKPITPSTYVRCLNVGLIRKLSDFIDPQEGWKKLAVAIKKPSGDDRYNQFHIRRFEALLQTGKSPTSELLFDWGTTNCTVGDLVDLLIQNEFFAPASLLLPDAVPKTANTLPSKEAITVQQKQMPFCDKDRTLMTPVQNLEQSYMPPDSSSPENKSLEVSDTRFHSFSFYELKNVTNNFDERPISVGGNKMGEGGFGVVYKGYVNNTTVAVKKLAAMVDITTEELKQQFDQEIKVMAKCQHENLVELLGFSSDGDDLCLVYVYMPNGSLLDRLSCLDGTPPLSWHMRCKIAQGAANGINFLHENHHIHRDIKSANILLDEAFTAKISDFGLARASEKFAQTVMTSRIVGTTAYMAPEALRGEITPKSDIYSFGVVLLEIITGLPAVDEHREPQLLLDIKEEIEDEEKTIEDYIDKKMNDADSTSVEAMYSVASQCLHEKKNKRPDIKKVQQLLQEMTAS
Assay: IRAK4 Inhibition Assay: The assays were performed in U-bottom 384-well plates. The final assay volume was 30 μL prepared from 15 μL additions of enzyme and substrates (fluoresceinated peptide and ATP) and test compounds in assay buffer (20 mM HEPES pH 7.2, 10 mM MgCl2, 0.015% Brij 35 and 4 mM DTT). The reaction was initiated by the combination of IRAK4 with substrates and test compounds. The reaction mixture was incubated at room temperature for 60 min. and terminated by adding 45 μL of 35 mM EDTA to each sample. The reaction mixture was analyzed on the Caliper LABCHIP® 3000 (Caliper, Hopkinton, Mass.) by electrophoretic separation of the fluorescent substrate and phosphorylated product. Inhibition data were calculated by comparison to no enzyme control reactions for 100% inhibition and vehicle-only reactions for 0% inhibition. The final concentrations of reagents in the assays are ATP, 500 μM; FL-IPTSPITTTYFFFKKK peptide 1.5 μM; IRAK4, 0.6 nM; and DMSO, 1.6%.

SMILES	IC50
CC(C)(O)[C@H](F)CNC(=O)c1cnc(-c2cnn3cc(C#N)cnc23)cc1Nc1ccc(C(N)=O)cc1	1 nM
CC(=O)N[C@H]1CC[C@H](NC(=O)c2cnc(-c3cnn4cc(C#N)cnc34)cc2NC(C)C)CC1	15 nM
CC1(Nc2cc(-c3cnc4cc(Cl)cnn34)ncc2C(=O)NC[C@H](F)C(C)(C)O)CC1	2 nM
CC(C)(O)[C@H](F)CNC(=O)c1cnc(-c2cnn3cc(Cl)cnc23)cc1Nc1ccn(CC(F)F)c1	2 nM
CC(C)(O)[C@H](F)CNC(=O)c1cnc(-c2cnn3cc(C#N)cnc23)cc1NC1CCC(F)(F)C1O (some centres not stated)	13 nM
CC(C)(C)Nc1cc(-c2cnc3cc(C#N)cnn23)ncc1C(=O)NC[C@@H](F)C(C)(C)O	2 nM
COC(C)(C)[C@H]1CC[C@H](NC(=O)c2cnc(-c3cnc4cc(Cl)cnn34)cc2NC2COC2)CC1	7 nM
CC(C)(O)[C@H](F)CNC(=O)c1cnc(-c2cnn3cc(Cl)cnc23)cc1NC12CC(C1)C2	9 nM

Continued, values first:

IC50	SMILES
5 nM	CCCNc1cc(-c2cnn3cc(Cl)cnc23)ncc1C(=O)NC[C@@H](F)C(C)(C)O
12 nM	CC(C)(F)CNc1cc(-c2cnn3cc(C#N)cnc23)ncc1C(=O)NC[C@@H](F)C(C)(C)O
2 nM	CC(C)(O)[C@H](F)CNC(=O)c1cnc(-c2cnn3cc(C#N)cnc23)cc1Nc1ccn(CC(F)F)c1
2 nM	CC(C)(O)[C@H](F)CNC(=O)c1cnc(-c2cnn3cc(C#N)cnc23)cc1NC1CCC1
